Measured values from ChEMBL document CHEMBL1152468, “Fitness cost and impaired survival in penicillin-resistant Streptococcus gordonii isolates selected in the laboratory” (2008).
≈ marks a conversion by molar mass, not a printed value. Calls of active or inactive are those of the source. The rule behind the calls is not given here.

Columns and labels:
Streptococcus gordonii [1] = test: Antimicrobial activity against wild type Streptococcus gordonii; type: functional
Streptococcus gordonii [2] = test: Antimicrobial activity against penicillin-resistant Streptococcus gordonii PR1_2 mutant; type: functional
Streptococcus gordonii [3] = test: Antimicrobial activity against wild type Streptococcus gordonii assessed as generation time at mid-logarithmic phase of growth; type: functional
Streptococcus gordonii [4] = test: Antimicrobial activity against penicillin-resistant Streptococcus gordonii PR1_2 mutant assessed as generation time at mid-logarithmic phase of growth; type: functional
Streptococcus gordonii [5] = test: Antimicrobial activity against penicillin-resistant Streptococcus gordonii PR1_2evolved mutant assessed as generation time at mid-logarithmic phase of growth; type: functional
Streptococcus gordonii [6] = test: Ratio of generation time for wild type Streptococcus gordonii to generation time for penicillin-resistant Streptococcus gordonii PR1_2 mutant at mid-logarithmic phase of growth; type: functional
Streptococcus gordonii [7] = test: Ratio of generation time for wild type Streptococcus gordonii to generation time for penicillin-resistant Streptococcus gordonii PR1_2evolved mutant at mid-logarithmic phase of growth; type: functional
Streptococcus gordonii [8] = test: Antimicrobial activity against wild type Streptococcus gordonii assessed as logarithmic reduction in viability at stationary phase of growth after 70 hrs; type: functional
Streptococcus gordonii [9] = test: Antimicrobial activity against penicillin-resistant Streptococcus gordonii PR1_2 mutant assessed as logarithmic reduction in viability at stationary phase of growth after 70 hrs; type: functional
Streptococcus gordonii [10] = test: Antimicrobial activity against penicillin-resistant Streptococcus gordonii PR1_2evolved mutant co-cultured with wild type Streptococcus gordoni assessed as loss of viability at stationary phase of growth at 0.5 ug/mL after 15 hrs; type: functional, organism-based
Streptococcus gordonii [11] = test: Antimicrobial activity against penicillin-resistant Streptococcus gordonii PR1_2evolved mutant co-cultured with wild type Streptococcus gordoni assessed as loss of viability at stationary phase of growth at 0.5 ug/mL after 70 hrs relative to wild type; type: functional, organism-based

Q: `CC1(C)S[C@@H]2[C@H](NC(=O)Cc3ccccc3)C(=O)N2[C@H]1C(=O)O` [PENICILLIN G] was tested. Which MIC (Streptococcus gordonii [1]) did it give?
A: 0.008 mg/L (≈ 0.0239 µM)

Q: And the MIC (Streptococcus gordonii [2])?
A: 2 mg/L (≈ 5.98 µM)

Q: What about the Activity (Streptococcus gordonii [3]) of the same compound?
A: 48.4 min

Q: And the Activity (Streptococcus gordonii [4])?
A: 60.6 min

Q: And the Activity (Streptococcus gordonii [5])?
A: 45 min

Q: What about the Ratio (Streptococcus gordonii [6]) of the same compound?
A: 0.8

Q: And the Ratio (Streptococcus gordonii [7])?
A: 1.06

Q: And the Activity (Streptococcus gordonii [8])?
A: 2 log10CFU/ml

Q: What about the Activity (Streptococcus gordonii [9]) of the same compound?
A: >4 log10CFU/ml

Q: And the Activity (Streptococcus gordonii [10])?
A: Active

Q: And the Activity (Streptococcus gordonii [11])?
A: Active
